{"source": "patent US20240327471A1", "about": "“IL-10 INDUCING POLYPEPTIDES AND USES THEREOF” (ENTEROME S.A., priority 2021, published 2024)", "key": {"[1]": {"system": "monocyte-derived dendritic cells (MoDCs)", "assay": "NAT_29 dose response, IL-10 secretion from MoDCs co-stimulated with LPS (AlphaLISA)", "format": "cell-based, human", "details": "0.1 to 1000 nM; LPS 100 ng/ml; 24 hours", "procedure": "(§1) To investigate the IL-10 inducing/enhancing capacity of NAT_29, in vitro IL-10 secretion of human immune cells in the presence of different doses of NAT_29 was tested. Briefly, human CD14+ monocytes were isolated from peripheral blood mononuclear cells (PBMCs) from healthy human volunteers by density gradient centrifugation using SepMate™-50 IVD tubes (Stemcell, Ref. 85460). The obtained PBMCs were washed thrice with Dulbeccos's phosphate buffered saline (PBS, Sigma, D88537) and lysed 10 min at room temperature in Red blood Lysis buffer 1X (Miltenyi Biotec, 130-094-183). Cells were washed with MACS buffer (Miltenyi Biotec, 130-091-221) and counted using the trypan blue dye exclusion method. CD14+monocytes were sorted using anti-human CD14 Microbeads (Miltenyi Biotec, 130-050-201) as per manufacturer's protocol. Positive CD14+ fractions were collected and seeded at 2×10^4 cells per well in 384 well plates in IMDM medium (Gibco, 12440-046) supplemented with 10% FBS and 1X antibiotic solution.\nMonocyte-derived dendritic cells (MoDCs) were derived from the differentiation of CD14+ cells, obtained after the selective sorting. […]\n(§2) […] IL-10 secretion were measured at 24 hours by AlphaLISA® on cell supernatants according to the supplier's protocol and read on an Envision plate reader (Perkin Elmer)."}, "human CD14+ monocytes": {"system": "human CD14+ monocytes", "assay": "NAT_29 dose response, IL-10 secretion from monocytes co-stimulated with LPS (AlphaLISA)", "format": "cell-based", "details": "LPS 100 ng/ml, 24 hours", "procedure": "as §1, §2"}, "monocytes": {"system": "monocytes", "assay": "Kinetics of IL-10, TNF-α and IL-6 secretion from monocytes co-stimulated with LPS (AlphaLISA)", "format": "cell-based, human", "details": "1 μM, LPS 10 ng/ml", "procedure": "To confirm the anti-inflammatory potential of NAT_29 (SEQ ID NO: 1), a kinetic study was performed to test the concomitant secretion of IL-10 and the major pro-inflammatory cytokines TNF-α and IL-6. To this end, monocytes were obtained as described in Example 3 and stimulated with 1 μM NAT_29 polypeptide (SEQ ID NO: 1), co-stimulated with 10 ng/ml of LPS from E. coli O111: B4 (InvivoGen, tlrl-eblps) and placed in humidified CO2 incubator at 5% CO2/37° C. for 72 h. IL-10, TNF-α and IL-6 secretion were measured at 5, 10, 24, 48 and 72 hours by AlphaLISA® on cell supernatants according to the supplier's protocol (Perkin, ref. AL218F, AL208F, AL223F) and read on an Envision plate reader (Perkin Elmer)."}, "TNBS-induced colitis": {"system": "TNBS-induced colitis", "assay": "Acute colitis induced by TNBS in rats (Wallace score, colon Lipocalin-2, mortality)", "format": "in vivo, Sprague-Dawley rats", "details": "intrarectal; for Wallace score: once a day, evaluated 4 days after TNBS", "from_the_text": "Next, anti-inflammatory properties of the NAT_29 polypeptide (SEQ ID NO: 1) have been evaluated in the 2,4,6-trinitrobenzene sulfonic acid (TNBS)-induced colitis model. The model of colitis induced by TNBS in rats is a validated animal model to evaluate the anti-inflammatory properties of drugs in intestinal bowel diseases (IBD). TNBS induces deep inflammation resulting in necrosis (with transmural destruction of the intestine wall) of the colon. This model is well-characterized, reliable, reproducible, and admitted by regulatory authorities in IBD (e.g., as described in Antoniou, E., et al. (2016). The TNBS-induced colitis animal model: An overview. Annals of medicine and surgery, vol. 11, 9-15, which is incorporated herein in its entirety).\nTo this end, the NAT_29 polypeptide (SEQ ID NO: 1) was administered by intrarectal instillation at two different concentrations (1 and 0.1 μM) in the model of acute colitis induced by TNBS (intrarectal administration at 80 mg/kg) in Sprague-Dawley rats. The anti-inflammatory effects were evaluated at the macroscopic level using validated score of Wallace and compared to those induced by the positive control (5-ASA) administered also by intrarectal instillation.\nResolution of inflammation was also evaluated using colon Lipocalin-2 (Lcn-2) quantification. Lipocalin-2, also known as neutrophil gelatinase-associated lipocalin (NGAL), is considered as a clinically relevant biomarker of IBD. […] In rodent models of colitis, a strong association has been shown between elevated levels of Lcn-2 and colitis severity.\nMale Sprague-Dawley rats (Body weight: around 100-150 g) were allocated randomly and blindly 4 per cage and acclimated for one week. Rats were obtained from Janvier Laboratoires, Le Genest Saint-Isle, France.\nThe tested products were administered once a day by intrarectal instillation (500μl) in a prophylactic and therapeutic mode starting at day -5, i.e. 5 days before colitis induction (DO) and until euthanasia at D4, corresponding to 9 treatment days in total.\nFor colitis induction, Sprague Dawley rats were anesthetized for 2 hours using a subcutaneous injection of xylazine at 12.5 mg/kg/ketamin at 25 mg/kg. […] The TNBS solution at 80 mg/kg was prepared based on the mean body weight of rats, which is recorded before the TNBS solution preparation.\nNAT_29 was solubilized in PBS and the active concentration for animal treatment was calculated assuming a maximum volume of colon-rectum content in rat of 3.5ml. […]\nAnimals were sacrificed 4 days (D4) after TNBS administration (DO) for evaluation of the intensity of colitis. Samples from distal colon were collected and used for macroscopic assessments and lipocalin quantification. […]"}}, "data": [{"sequence": "KKGSRSCFFIYLDRGTKKGSRSCFFYLP (NAT_29) [28-amino-acid fragment of microbiota protein ID3166]", "values": [{"measurement": "IL-10 secretion from MoDCs", "setting": "[1]", "result": "highest IL-10 levels were measured in both cell types at the highest concentration of NAT_29 tested"}, {"measurement": "IL-10 secretion from monocytes", "setting": "human CD14+ monocytes; 0.1 to 1000 nM", "result": "highest IL-10 levels were measured in both cell types at the highest concentration of NAT_29 tested"}, {"measurement": "sensitivity of monocytes versus MoDCs to the action of NAT_29", "setting": "human CD14+ monocytes; IL-10 secretion", "result": "monocytes appeared to be more sensitive than MoDCs"}, {"measurement": "IL-6 secretion", "setting": "monocytes; 5, 10, 24, 48 and 72 hours", "result": "no significant secretion"}, {"measurement": "TNF-a secretion", "setting": "monocytes; 5, 10, 24, 48 and 72 hours", "result": "no significant secretion"}, {"measurement": "IL-10 secretion, fold in respect to LPS, peak", "setting": "monocytes; peak at 24 h, mean of six monocyte donors", "result": 2, "unit": "fold"}, {"measurement": "IL-10 secretion, fold in respect to LPS, after peak", "setting": "monocytes; until the end of the experiment (72 h)", "result": "1,5 Fold"}, {"measurement": "Wallace score", "setting": "TNBS-induced colitis; final concentration of 0.1 μM", "result": "protective effect (albeit not significant)"}, {"measurement": "lipocalin-2 level in the colon (ELISA)", "setting": "TNBS-induced colitis; final concentration of 0.1 μM, 4 days after TNBS", "result": "slight decrease of lipocalin-2 level (albeit not significant)"}, {"measurement": "Wallace score", "setting": "TNBS-induced colitis; final concentration of 1 μM", "result": "statistically protective effect"}, {"measurement": "Lipocalin levels in the colon (ELISA)", "setting": "TNBS-induced colitis; final concentration of 1UM, 4 days after TNBS", "result": "significant decrease of Lipocalin levels"}]}]}
